The subject of one assay is luciferase. Description: Additional luciferase substrate assay, compared to known analogue C-1 (Table 3). Format: biochemical. Particulars: relative to C-1 (=1). As for the experimental part:
(§1) Luminescence Assay Procedure: Each compound to be screened was dissolved in DMSO (5 mM) and then further diluted to 100 uM in NANO-GLOR Luciferase Assay Buffer. Each diluted substrate was then combined in equal volumes with purified NanoLuc® Luciferase diluted into CO2 independent media+10% FBS. Initial light output for each substrate was measured in a GloMax®-Multi+ luminometer three minutes after substrate addition and then at five minute intervals as a means to determine signal half-life.
The compounds of formula (I) were also evaluated for their ability to be luciferase substrates in an additional assay.

Another assay has as its target NanoLuc® Luciferase (Oplophorus gracilirostris, UniProt Q9GV45, A31E/A60N/A81I/F95D/I117V/K70R/L54V/L99Q/M102K/N193R/P142E/Q151K/Q38R/Q45L/V71I/Y165I). It counts as biochemical. Conditions: ratio to coelenterazine (=1); for I (relative light units, ratio in comparison to native coelenterazine): initial light output three minutes after substrate addition; for Half-life (signal half-life, ratio in comparison to native coelenterazine): read at five minute intervals. The procedure: as §1
A subset of the synthesized coelenterazine analogues (compounds of formula (I)) were evaluated for their suitability as luciferase substrates. NANOLUC® luciferase was employed for the screening because it is a small (19 kDa), stable, and particularly bright enzyme.

NanoLuc® Luciferase, sequence (Q9GV45 other isoform, or with tags, fused parts or gaps with the stated changes): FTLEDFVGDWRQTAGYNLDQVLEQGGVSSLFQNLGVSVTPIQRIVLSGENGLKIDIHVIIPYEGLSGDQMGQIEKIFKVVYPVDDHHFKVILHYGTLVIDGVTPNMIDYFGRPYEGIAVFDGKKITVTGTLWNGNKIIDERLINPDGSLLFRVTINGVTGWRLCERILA

Regarding `O=c1c(Cc2ccc(F)cc2)nc2c(Cc3ccccc3)[nH]c(-c3ccccc3)cn1-2` [Compound 2], the “RLU (@100 uM)” value in the assay on luciferase is 0.96. On NanoLuc® Luciferase, the “I (relative light units, ratio in comparison to native coelenterazine)” value was 40 and the “Half-life (signal half-life, ratio in comparison to native coelenterazine)” value turned out to be 0.16.

As to `O=c1c(Cc2ccc(F)cc2F)nc2c(Cc3ccccc3)[nH]c(-c3ccccc3)cn1-2` [Compound 3], the “RLU (@100 uM)” value in the assay on luciferase is 0.93. At NanoLuc® Luciferase, the “I (relative light units, ratio in comparison to native coelenterazine)” value is 38.75 and the “Half-life (signal half-life, ratio in comparison to native coelenterazine)” value is 0.23.

As to `O=c1c(Cc2ccc3ccccc3c2)nc2c(Cc3ccccc3)[nH]c(-c3ccccc3)cn1-2` [Compound 4], the “RLU (@100 uM)” value with luciferase is given as 0.22. In addition, on NanoLuc® Luciferase, the “I (relative light units, ratio in comparison to native coelenterazine)” value is listed as 9.166 and the “Half-life (signal half-life, ratio in comparison to native coelenterazine)” value is recorded as 0.72.

`CC(C)(C)c1ccc(Cc2nc3c(Cc4ccccc4)[nH]c(-c4ccccc4)cn-3c2=O)cc1` [Compound 5]: the “RLU (@100 uM)” value with luciferase is recorded as 0.093. Besides, on NanoLuc® Luciferase, the “I (relative light units, ratio in comparison to native coelenterazine)” value was 3.875 and the “Half-life (signal half-life, ratio in comparison to native coelenterazine)” value is 0.43.

For `O=c1c(Cc2cc3ccccc3s2)nc2c(Cc3ccccc3)[nH]c(-c3ccccc3)cn1-2` [Compound 6], the “RLU (@100 uM)” value with luciferase came to 0.33. On NanoLuc® Luciferase, the “I (relative light units, ratio in comparison to native coelenterazine)” value is recorded as 13.75 and the “Half-life (signal half-life, ratio in comparison to native coelenterazine)” value amounted to 0.33.

Regarding `O=c1c(Cc2csc3ccccc23)nc2c(Cc3ccccc3)[nH]c(-c3ccccc3)cn1-2` [Compound 7], the “RLU (@100 uM)” value in the assay on luciferase is given as 0.1. Besides, at NanoLuc® Luciferase, the “I (relative light units, ratio in comparison to native coelenterazine)” value is reported as 4.166 and the “Half-life (signal half-life, ratio in comparison to native coelenterazine)” value is 0.52.

As to `COc1ccc(Cc2nc3c(Cc4ccccc4)[nH]c(-c4ccccc4)cn-3c2=O)cc1` [Compound 8], the “RLU (@100 uM)” value with luciferase was 0.56. For the same compound, at NanoLuc® Luciferase, the “I (relative light units, ratio in comparison to native coelenterazine)” value was 23.333 and the “Half-life (signal half-life, ratio in comparison to native coelenterazine)” value worked out at 0.38.

For the compound `Nc1ccc(Cc2nc3c(Cc4ccccc4)[nH]c(-c4ccccc4)cn-3c2=O)cc1` [Compound 9], in the assay with luciferase, the “RLU (@100 uM)” value is 0.025. On NanoLuc® Luciferase, the “I (relative light units, ratio in comparison to native coelenterazine)” value is 1.041 and the “Half-life (signal half-life, ratio in comparison to native coelenterazine)” value was found to be 0.93.

With `O=C(O)c1ccc(Cc2nc3c(Cc4ccccc4)[nH]c(-c4ccccc4)cn-3c2=O)cc1` [Compound 10], the “RLU (@100 uM)” value with luciferase was determined as 0.0034. On NanoLuc® Luciferase, the “I (relative light units, ratio in comparison to native coelenterazine)” value was determined as 0.142 and the “Half-life (signal half-life, ratio in comparison to native coelenterazine)” value is on record as 1.02.

Turning to `Cn1nnc2cc(Cc3nc4c(Cc5ccccc5)[nH]c(-c5ccccc5)cn-4c3=O)ccc21` [Compound 11], the “RLU (@100 uM)” value in the assay on luciferase turned out to be 0.0072. For the same compound, on NanoLuc® Luciferase, the “I (relative light units, ratio in comparison to native coelenterazine)” value stood at 0.3 and the “Half-life (signal half-life, ratio in comparison to native coelenterazine)” value was 1.04.

For the compound `Cn1nc(-c2cccs2)cc1Cc1nc2c(Cc3ccccc3)[nH]c(-c3ccccc3)cn-2c1=O` [Compound 12], the “RLU (@100 uM)” value in the assay with luciferase was found to be 0.0046. Also, on NanoLuc® Luciferase, the “I (relative light units, ratio in comparison to native coelenterazine)” value was determined as 0.192 and the “Half-life (signal half-life, ratio in comparison to native coelenterazine)” value was found to be 0.57.

For `Cc1noc(C)c1Cc1nc2c(Cc3ccccc3)[nH]c(-c3ccccc3)cn-2c1=O` [Compound 13], the “RLU (@100 uM)” value in the assay with luciferase is given as 0.014. Further, at NanoLuc® Luciferase, the “I (relative light units, ratio in comparison to native coelenterazine)” value was determined as 0.583 and the “Half-life (signal half-life, ratio in comparison to native coelenterazine)” value worked out at 2.64.

For the compound `O=c1c(Cc2cn(-c3ccccc3)nc2-c2ccccc2)nc2c(Cc3ccccc3)[nH]c(-c3ccccc3)cn1-2` [Compound 14], in the assay with luciferase, the “RLU (@100 uM)” value turned out to be 0.001. Besides, on NanoLuc® Luciferase, the “I (relative light units, ratio in comparison to native coelenterazine)” value worked out at 0.042 and the “Half-life (signal half-life, ratio in comparison to native coelenterazine)” value was determined as 2.15.

Turning to `COc1ncc(Cc2nc3c(Cc4ccccc4)[nH]c(-c4ccccc4)cn-3c2=O)cn1` [Compound 15], the “RLU (@100 uM)” value in the assay with luciferase was 0.014. Besides, on NanoLuc® Luciferase, the “I (relative light units, ratio in comparison to native coelenterazine)” value was 0.583 and the “Half-life (signal half-life, ratio in comparison to native coelenterazine)” value amounted to 0.88.

Take `Cn1cc(Cc2nc3c(Cc4ccccc4)[nH]c(-c4ccccc4)cn-3c2=O)c(=O)n(C)c1=O` [Compound 16]: the “RLU (@100 uM)” value in the assay with luciferase is reported as 0.0001. For the same compound, at NanoLuc® Luciferase, the “I (relative light units, ratio in comparison to native coelenterazine)” value was determined as 0.0042 and the “Half-life (signal half-life, ratio in comparison to native coelenterazine)” value stood at 0.005.

Consider `O=c1c(Cc2cccnc2)nc2c(Cc3ccccc3)[nH]c(-c3ccccc3)cn1-2` [Compound 64], for which the “RLU (@100 uM)” value in the assay with luciferase worked out at 0.066. On NanoLuc® Luciferase, the “I (relative light units, ratio in comparison to native coelenterazine)” value is on record as 2.75 and the “Half-life (signal half-life, ratio in comparison to native coelenterazine)” value came out at 3.03.

As to `O=c1c(Cc2ccc(F)nc2F)nc2c(Cc3ccccc3)[nH]c(-c3ccccc3)cn1-2` [Compound 65], the “RLU (@100 uM)” value in the assay on luciferase worked out at 0.26. Moreover, at NanoLuc® Luciferase, the “I (relative light units, ratio in comparison to native coelenterazine)” value was determined as 10.833 and the “Half-life (signal half-life, ratio in comparison to native coelenterazine)” value was found to be 0.62.

As to `O=c1c(Cc2cncc(F)c2)nc2c(Cc3ccccc3)[nH]c(-c3ccccc3)cn1-2` [Compound 66], the “RLU (@100 uM)” value with luciferase is given as 0.039. On NanoLuc® Luciferase, the “I (relative light units, ratio in comparison to native coelenterazine)” value stood at 1.625 and the “Half-life (signal half-life, ratio in comparison to native coelenterazine)” value came to 0.98.

`O=c1c(Cc2cccnc2F)nc2c(Cc3ccccc3)[nH]c(-c3ccccc3)cn1-2` [Compound 67]: in the assay with luciferase, the “RLU (@100 uM)” value turned out to be 0.11. Besides, at NanoLuc® Luciferase, the “I (relative light units, ratio in comparison to native coelenterazine)” value stood at 4.583 and the “Half-life (signal half-life, ratio in comparison to native coelenterazine)” value turned out to be 1.14.

As to `O=c1c(Cc2ccc(F)nc2)nc2c(Cc3ccccc3)[nH]c(-c3ccccc3)cn1-2` [Compound 68], the “RLU (@100 uM)” value with luciferase came out at 0.31. Besides, at NanoLuc® Luciferase, the “I (relative light units, ratio in comparison to native coelenterazine)” value is reported as 12.916 and the “Half-life (signal half-life, ratio in comparison to native coelenterazine)” value amounted to 0.93.

With `O=c1c(Cc2ccc(Cl)nc2)nc2c(Cc3ccccc3)[nH]c(-c3ccccc3)cn1-2` [Compound 69], the “RLU (@100 uM)” value in the assay on luciferase was 0.18. In addition, at NanoLuc® Luciferase, the “I (relative light units, ratio in comparison to native coelenterazine)” value came to 7.5 and the “Half-life (signal half-life, ratio in comparison to native coelenterazine)” value is recorded as 0.35.

Regarding `O=c1c(Cc2ccc(Br)nc2)nc2c(Cc3ccccc3)[nH]c(-c3ccccc3)cn1-2` [Compound 70], in the assay on luciferase, the “RLU (@100 uM)” value was determined as 0.12. In addition, at NanoLuc® Luciferase, the “I (relative light units, ratio in comparison to native coelenterazine)” value is recorded as 5 and the “Half-life (signal half-life, ratio in comparison to native coelenterazine)” value is given as 0.19.

As to `COc1ccc(Cc2nc3c(Cc4ccccc4)[nH]c(-c4ccccc4)cn-3c2=O)cn1` [Compound 71], the “RLU (@100 uM)” value with luciferase is recorded as 0.65. Moreover, on NanoLuc® Luciferase, the “I (relative light units, ratio in comparison to native coelenterazine)” value was determined as 27.083 and the “Half-life (signal half-life, ratio in comparison to native coelenterazine)” value is on record as 0.14.

`COc1cncc(Cc2nc3c(Cc4ccccc4)[nH]c(-c4ccccc4)cn-3c2=O)c1` [Compound 72]: the “RLU (@100 uM)” value in the assay on luciferase stood at 0.029. On NanoLuc® Luciferase, the “I (relative light units, ratio in comparison to native coelenterazine)” value turned out to be 1.208 and the “Half-life (signal half-life, ratio in comparison to native coelenterazine)” value turned out to be 0.88.

Take `Oc1ccc(Cc2nc3c(Cc4ccccc4)nc(-c4ccc(O)cc4)cn3c2O)cc1` [coelenterazine, reference compound]: at NanoLuc® Luciferase, the “I (relative light units, ratio in comparison to native coelenterazine)” value came out at 1 and the “Half-life (signal half-life, ratio in comparison to native coelenterazine)” value came out at 1.

Source of the values: US11015216B2, “Substituted imidazo[1,2-a]pyrazines as luciferase substrates” (PROMEGA CORPORATION, priority 2016, dated 2021).
